System: bone marrow erythroblasts
Assay: Flow cytometry of bone marrow cells / erythroblast subsets (Ter119/CD71 double staining) of treated mice
Type: in vivo, mouse
Experimental: Wild-type mice with a genetic background of C57BL/6J were purchased from Charles River Laboratories, Inc. Mice at 8 to 14 weeks of age were used for analysis. For CLEU treatment (50 mg/body), a solution of cycloleucine (CLEU) was prepared by diluting cycloleucine (CLEU) (Sigma) in PBS (50 mg/ml), and 1 ml of the CLEU solution was administered intraperitoneally. For AKBA treatment (2 mg/body), 2 mg AKBA (Enzo Life Sciences)/20% DMSO/1 mL PBS solution was administered intraperitoneally. Vehicle without AKBA was used as a control. For measuring complete blood count of peripheral blood, peripheral blood was collected from facial veins and counted by use of an automated animal blood cell counter (microsemi LC-662). All of the experiments conducted in this study were approved by the Animal Experiment Committee of the Environmental Safety Committee of Tohoku University.
BM cells and spleen cells were harvested in a conventional manner. Cells were stained with combinations of antibodies specific to erythroblasts and mature cells, to thereby identify them. The cells were visualized with antibody and streptavidin-peridinin chlorophyll protein-cyanin 5.5. The antibodies used in this study were as follows: anti-CD3e (145-2C11), anti-CD4 (GK1.5 or RM4.5), anti-CD8a (53-6.7), anti-Gr-1 (RB6-8C5), anti-B220 (RA3-6B2), anti-Ter-119 (TER-119), anti-CD71 (R17217 or C2). Cells were stained with […] (Sigma), and dead cells were excluded from analysis. Flow cytometric analysis and cell sorting were performed according to the manufacturer's protocol using FACS AriaII (BD), and then the obtained data were analyzed using FlowJo software (TreeStar).
Additionally, MAT inhibitor PF9366 (PF) was administered to mice and the effect thereof was investigated. Vehicle (DMSO) (control (Ctrl)) or 10 mM PF9366 (prepared at a concentration of 40 μl/40 ml water) was provided in a drinking bottle (0 h). In addition, 80 μl of vehicle (DMSO) or 80 μl of 10 mM PF9366 dissolved in 1 ml PBS was also administered intraperitoneally at 0 h and 24 h. Analysis was carried out at Day 2 (48 h).
MAT inhibitor 3-acetyl-11-keto-β-boswellic acid (AKBA; 2 mg/body) was intraperitoneally administered to mice at 0 and 24 hours, and analyzed after 48 hours.

[1] = PF9366 in drinking water plus i.p. at 0 h and 24 h, Day 2 (48 h), vs DMSO

Compound	maturation of erythroblasts (AKBA 2 mg/body i.p. at 0 and 24 hours, analyzed after 48 hours, Ter119/CD71 double staining, vs vehicle)	subset from which the increase of erythroblast was initiated (PF9366 10 mM: 40 μl/40 ml drinking water plus 80 μl in 1 ml PBS i.p. at 0 h and 24 h, Day 2 (48 h), vs DMSO)	erythroblast maturation index [1]	maturation of erythroblasts [1]
CC(=O)O[C@@H]1CC[C@@]2(C)[C@@H](CC[C@]3(C)[C@@H]2C(=O)C=C2[C@@H]4[C@@H](C)[C@H](C)CC[C@]4(C)CC[C@]23C)[C@@]1(C)C(=O)O [AKBA, 3-acetyl-11-keto-β-boswellic acid]	significantly up-regulated			
CN(C)CCc1nnc2cc(-c3ccccc3)c3cc(Cl)ccc3n12 [PF9366, 2-(7-chloro-5-phenyl-[1,2,4]triazolo[4,3-a]quinolin-1-yl)-N,N-dimethylethan-1-amine]		initiated from subset III	significant difference	significantly up-regulated
